Source: PubChem BioAssay AID248 (DTP/NCI, 2004)
“And” between values parts separate entries of the source, which are not always exact repeats. Equal entries are not always repeated. Toxic doses and inconclusive results are not listed. No stated cut-off is given here; in the data, active means T/C of 150% or more; inactive means T/C below 125%.

Test system: L1210 leukemia ip in BDF1 mice, survival T/C
Assay: NCI In Vivo Anticancer Drug Screen. Data for tumor model L1210 Leukemia (intraperitoneal) in B6D2F1 (BDF1) mice
Conditions: endpoint: mean survival time, higher = longer survival
Summary of the method: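 Transplantable tumor model; survival measured in treated vs vehicle control mice. Value = treated/control.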

[1] = dose: 100.0 mg/kg/injection, schedule: Q04DX002 (ip), vehicle: Klucel (hydroxypropylcellulose) (HPC)
[2] = dose: 200.0 mg/kg/injection, schedule: Q04DX002 (ip), vehicle: Klucel (hydroxypropylcellulose) (HPC)
[3] = dose: 400.0 mg/kg/injection, schedule: Q04DX002 (ip), vehicle: Klucel (hydroxypropylcellulose) (HPC)
[4] = dose: 100.0 mg/kg/injection, schedule: Q01DX001 (ip), vehicle: Klucel (hydroxypropylcellulose) (HPC)
[5] = dose: 100.0 mg/kg/injection, schedule: Q04DX003 (ip), vehicle: saline with Tween-80
[6] = dose: 100.0 mg/kg/injection, schedule: Q01DX001 (ip), vehicle: saline with Tween-80
[7] = dose: 200.0 mg/kg/injection, schedule: Q01DX001 (ip), vehicle: saline with Tween-80
[8] = dose: 400.0 mg/kg/injection, schedule: Q01DX001 (ip), vehicle: saline with Tween-80
[9] = dose: 50.0 mg/kg/injection, schedule: Q01DX009 (ip), vehicle: Klucel (hydroxypropylcellulose) (HPC)
[10] = dose: 100.0 mg/kg/injection, schedule: Q01DX009 (ip), vehicle: Klucel (hydroxypropylcellulose) (HPC)
[11] = dose: 100.0 mg/kg/injection, schedule: Q04DX003 (ip), vehicle: Klucel (hydroxypropylcellulose) (HPC)
[12] = dose: 200.0 mg/kg/injection, schedule: Q01DX009 (ip), vehicle: Klucel (hydroxypropylcellulose) (HPC)
[13] = dose: 200.0 mg/kg/injection, schedule: Q04DX003 (ip), vehicle: Klucel (hydroxypropylcellulose) (HPC)
[14] = dose: 400.0 mg/kg/injection, schedule: Q04DX003 (ip), vehicle: Klucel (hydroxypropylcellulose) (HPC)
[15] = dose: 25.0 mg/kg/injection, schedule: Q01DX009 (ip), vehicle: Klucel (hydroxypropylcellulose) (HPC)
[16] = dose: 400.0 mg/kg/injection, schedule: Q01DX009 (ip), vehicle: Klucel (hydroxypropylcellulose) (HPC)

Measured: T/C

N#C/C(C(N)=O)=C1\CCCc2sccc21
inactive: dose: 100.0 mg/kg/injection, schedule: Q01DX001 (ip), vehicle: saline 102 % of control | dose: 200.0 mg/kg/injection, schedule: Q01DX001 (ip), vehicle: saline 95 % of control

O=C(O)C1C2OC3C(OC(=O)C31)C2Cl (stereo unspecified)
inactive: [1] 95 % of control | [2] 92 % of control | [3] 92 % of control

NC(=S)N/N=C\C(=N/NC(N)=S)C(O)CO (stereo unspecified)
inactive: dose: 75.0 mg/kg/injection, schedule: Q01DX001 (ip), vehicle: saline 97 % of control | dose: 150.0 mg/kg/injection, schedule: Q01DX001 (ip), vehicle: saline 101 % of control

O=C(Nc1ccccc1CSc1nc2nc[nH]c(=O)c2[nH]1)c1ccc(S(=O)(=O)F)cc1
inactive: dose: 25.0 mg/kg/injection, schedule: Q01DX001 (ip), vehicle: Klucel (hydroxypropylcellulose) (HPC) 108 % of control | dose: 50.0 mg/kg/injection, schedule: Q01DX001 (ip), vehicle: Klucel (hydroxypropylcellulose) (HPC) 111 % of control | [4] 114 % of control

CCC(C)C(CN)(CCCCN1CCCC1)c1cccc2ccccc12 (stereo unspecified)
inactive: [5] 102 % of control

O=C1OC(C(O)C(O)C(O)CO)C(O)C1O (stereo unspecified)
inactive: dose: 100.0 mg/kg/injection, schedule: Q04DX002 (ip), vehicle: saline 96 % of control | dose: 200.0 mg/kg/injection, schedule: Q04DX002 (ip), vehicle: saline 96 % of control | dose: 400.0 mg/kg/injection, schedule: Q04DX002 (ip), vehicle: saline 108 % of control

CC12CC(O)C3c4ccc(O)cc4CCC3C1CCC2=O (stereo unspecified)
inactive: dose: 50.0 mg/kg/injection, schedule: Q01DX001 (ip), vehicle: carboxymethylcellulose (CMC) 106 % of control | dose: 100.0 mg/kg/injection, schedule: Q01DX001 (ip), vehicle: carboxymethylcellulose (CMC) 98 % of control | dose: 200.0 mg/kg/injection, schedule: Q01DX001 (ip), vehicle: carboxymethylcellulose (CMC) 104 % of control | dose: 400.0 mg/kg/injection, schedule: Q01DX001 (ip), vehicle: carboxymethylcellulose (CMC) 104 % of control

CC(=O)Nc1ccc(C(=O)O)c(OC(C)=O)c1
inactive: [6] 92 % of control | [7] 96 % of control | [8] 97 % of control

COC(=O)c1ccc(C)c(-n2c(-c3ccccc3)nnc2-c2ccccc2)c1
inactive: [9] 102 % of control | [10] 93 % of control | [11] 95 % of control | [12] 95 % of control | [13] 92 % of control | [14] 97 % of control

O=C(N/N=C(\C=N\NC(=O)c1ccccc1)CC(O)CO)c1ccccc1 (stereo unspecified)
inactive: [15] 93 % of control | [9] 91 % of control | [10] 91 % of control | [5] 94 % of control | dose: 200.0 mg/kg/injection, schedule: Q04DX003 (ip), vehicle: saline with Tween-80 93 % of control

O=C(C1=Cc2ccccc2OC1)N1CCN(c2ccccc2)CC1
inactive: dose: 100.0 mg/kg/injection, schedule: Q04DX003 (ip), vehicle: gum acacia 103 % of control | dose: 200.0 mg/kg/injection, schedule: Q04DX003 (ip), vehicle: gum acacia 95 % of control | dose: 400.0 mg/kg/injection, schedule: Q04DX003 (ip), vehicle: gum acacia 101 % of control

COc1ccc([N+](=O)[O-])cc1NC(=O)Nc1ccc(F)c([N+](=O)[O-])c1
inactive: [10] 98 % of control | [12] 95 % of control | [16] 95 % of control

CC1=CC(=O)CC(C)(C)C1(O)/C=C/C(C)=C/C(=O)O (stereo unspecified)
inactive: dose: 12.5 mg/kg/injection, schedule: Q04DX003 (ip), vehicle: Klucel (hydroxypropylcellulose) (HPC) 93 % of control | [15] 87 % of control | dose: 25.0 mg/kg/injection, schedule: Q04DX003 (ip), vehicle: Klucel (hydroxypropylcellulose) (HPC) 96 % of control | [9] 88 % of control | dose: 50.0 mg/kg/injection, schedule: Q04DX003 (ip), vehicle: Klucel (hydroxypropylcellulose) (HPC) 88 % of control | [10] 93 % of control | [11] 96 % of control | [12] 92 % of control | [13] 98 % of control | [16] 95 % of control | [14] 102 % of control

Cc1cc(C)c(Br)cc1N
inactive: [4] 90 % of control | dose: 200.0 mg/kg/injection, schedule: Q01DX001 (ip), vehicle: Klucel (hydroxypropylcellulose) (HPC) 95 % of control | dose: 400.0 mg/kg/injection, schedule: Q01DX001 (ip), vehicle: Klucel (hydroxypropylcellulose) (HPC) 102 % of control

C[C@]12CC[C@H]3[C@@H](CCC4=CC(=O)CC[C@@]43CO)[C@@H]1CC[C@@H]2O
inactive: dose: 50.0 mg/kg/injection, schedule: Q01DX001 (sc), vehicle: steriod suspending solution 102 % of control | dose: 100.0 mg/kg/injection, schedule: Q01DX001 (sc), vehicle: steriod suspending solution 98 % of control | dose: 200.0 mg/kg/injection, schedule: Q01DX001 (sc), vehicle: steriod suspending solution 98 % of control | dose: 400.0 mg/kg/injection, schedule: Q01DX001 (sc), vehicle: steriod suspending solution 102 % of control

OC(c1ccc(Cl)cc1)c1nc2ccccc2[nH]1 (stereo unspecified)
inactive: [1] 100 % of control | [2] 100 % of control | [3] 103 % of control

CCCSCCSCCC
inactive: dose: 25.0 mg/kg/injection, schedule: Q04DX003 (ip), vehicle: saline with Tween-80 104 % of control | dose: 50.0 mg/kg/injection, schedule: Q04DX003 (ip), vehicle: saline with Tween-80 102 % of control | [5] 104 % of control and 90 % of control

CNC(=O)N(CCC#N)C1CCCCC1
inactive: dose: 100.0 mg/kg/injection, schedule: Q04DX003 (ip), vehicle: other 104 % of control | dose: 200.0 mg/kg/injection, schedule: Q04DX003 (ip), vehicle: other 106 % of control | dose: 400.0 mg/kg/injection, schedule: Q04DX003 (ip), vehicle: other 96 % of control

COC(=O)C/C(=N\NC(=O)c1ccccc1)C(=O)OC
inactive: [9] 98 % of control | [10] 93 % of control | [12] 98 % of control | [16] 93 % of control

O=P(CCC(O)c1ccccc1)(c1ccccc1)c1ccccc1 (stereo unspecified)
inactive: [6] 93 % of control | [7] 106 % of control | [8] 100 % of control

O=C1CCS(=O)O1 (stereo unspecified)
inactive: [1] 100 % of control | [2] 95 % of control | [3] 89 % of control

CC1(c2ccccc2)OCC(CCl)O1 (stereo unspecified)
inactive: dose: 222.0 mg/kg/injection, schedule: Q01DX Z (ip), vehicle: saline 95 % of control | dose: 333.0 mg/kg/injection, schedule: Q01DX Z (ip), vehicle: saline 95 % of control | dose: 500.0 mg/kg/injection, schedule: Q01DX Z (ip), vehicle: saline 91 % of control

S=C(N/N=C/C(c1ccccc1)c1ccccc1)Nc1ccccc1
inactive: [6] 95 % of control | dose: 100.0 mg/kg/injection, schedule: Q01DX009 (ip), vehicle: saline with Tween-80 86 % of control | [7] 102 % of control | [8] 98 % of control | dose: 400.0 mg/kg/injection, schedule: Q01DX009 (ip), vehicle: saline with Tween-80 86 % of control

CCOc1ncc([N+](=O)[O-])cn1
inactive: [11] 101 % of control | [13] 114 % of control | [14] 103 % of control
